Columns and labels:
[1] = 101 kPa, Liquid
[2] = xn = mol fraction of the nth substance listed; conditions: 101 kPa, Liquid

OCCO [1,2-ethanediol]
[1]
Conditions | mass density [kg/m3] | viscosity [mPa·s]
308.15 K | 1101.88 | 11.19
313.15 K | 1098.33 | 9.444
318.15 K | 1094.75 | 7.972
323.15 K | 1091.16 | 6.794
333.15 K | 1083.94 | 5.065
343.15 K | 1074.53 | 3.879
353.15 K | 1069.72 | 3.058

OCCO [1,2-ethanediol] + Cc1ccc(O)cc1
[2], x2 = 0
Conditions | mass density [kg/m3] | viscosity [mPa·s]
308.15 K | 1101.88 | 11.19
313.15 K | 1098.33 | 9.444
318.15 K | 1094.75 | 7.972
323.15 K | 1091.16 | 6.794
333.15 K | 1083.94 | 5.065
343.15 K | 1074.53 | 3.879
353.15 K | 1069.72 | 3.058

Cc1ccc(O)cc1 [4-methylphenol]
[1]
Conditions | mass density [kg/m3] | viscosity [mPa·s]
308.15 K | 1021.98 | 8.444
313.15 K | 1018.05 | 6.745
318.15 K | 1014.09 | 5.471
323.15 K | 1010.12 | 4.532
328.15 K | 1006.57 | 3.888
333.15 K | 1002.09 | 3.245
343.15 K | 992.07 | 2.431
353.15 K | 986.24 | 1.891

Cc1ccc(O)cc1 [4-methylphenol] + CO
[2]
Conditions | mass density, 308.15 K [kg/m3] | mass density, 313.15 K [kg/m3] | mass density, 318.15 K [kg/m3] | mass density, 323.15 K [kg/m3] | mass density, 328.15 K [kg/m3] | viscosity, 308.15 K [mPa·s] | viscosity, 313.15 K [mPa·s] | viscosity, 318.15 K [mPa·s] | viscosity, 323.15 K [mPa·s] | viscosity, 328.15 K [mPa·s]
x1 = 0.1 | 837.27 | 832.69 | 828.09 | 823.45 | 819.09 | 0.701 | 0.652 | 0.608 | 0.568 | 0.533
x1 = 0.1999 | 881.21 | 876.78 | 872.35 | 867.89 | 863.71 | 0.977 | 0.901 | 0.834 | 0.772 | 0.719
x1 = 0.2998 | 914.53 | 910.25 | 905.93 | 901.61 | 897.58 | 1.333 | 1.218 | 1.112 | 0.998 | 0.942
x1 = 0.4 | 940.54 | 936.35 | 932.16 | 927.93 | 924.03 | 1.762 | 1.588 | 1.435 | 1.305 | 1.192
x1 = 0.4999 | 961.59 | 957.48 | 953.35 | 949.21 | 945.39 | 2.316 | 2.044 | 1.817 | 1.633 | 1.477
x1 = 0.5999 | 977.95 | 973.9 | 969.84 | 965.76 | 962.01 | 3.021 | 2.631 | 2.31 | 2.043 | 1.821
x1 = 0.6999 | 992.04 | 988.04 | 984.03 | 980 | 976.3 | 3.928 | 3.36 | 2.894 | 2.527 | 2.229
x1 = 0.8 | 1003.53 | 999.57 | 995.58 | 991.58 | 987.91 | 5.072 | 4.251 | 3.603 | 3.092 | 2.688
x1 = 0.8999 | 1013.73 | 1009.79 | 1005.83 | 1001.84 | 998.2 | 6.535 | 5.364 | 4.44 | 3.754 | 3.212
x1 = 1 | 1021.98 | 1018.05 | 1014.09 | 1010.12 | 1006.57 | 8.444 | 6.745 | 5.471 | 4.532 | 3.888

CO [methanol]
[1]
Conditions | mass density [kg/m3] | viscosity [mPa·s]
308.15 K | 776.92 | 0.476
313.15 K | 772.13 | 0.445
318.15 K | 767.31 | 0.421
323.15 K | 762.46 | 0.395
328.15 K | 757.85 | 0.372

CO [methanol] + Cc1ccc(O)cc1
[2], x2 = 0
Conditions | mass density [kg/m3] | viscosity [mPa·s]
308.15 K | 776.92 | 0.476
313.15 K | 772.13 | 0.445
318.15 K | 767.31 | 0.421
323.15 K | 762.46 | 0.395
328.15 K | 757.85 | 0.372
